# Assay: Scanning electron microscope inspection of encapsulated granules
# Assay type: physicochemical
# Settings: SEM
# Experimental: NaNO2 granules (food grade E250, BASF) approximately 0.2-1.0 mm and zein (USP30/NF25, Rebain International Ltd) were used as supplied. NaNO2 granules were dried in a commercial oven for 12 hours at 60° C. to remove any residual moisture. NaNO2 granules (500 g) were coated using a pan coating process; zein (10%) was dissolved in a mixture of water (10%) and ethanol (80%). For coatings containing plasticizer, zein (9.9%) was dissolved in a mixture of water (10%) and ethanol (80%) and either glycerol, PVP or PEG 400 were added at 0.1% to make a mixture containing zein and one of the potential plasticizers. To coat the NaNO2, 500 g of granules were placed in a spherical pan, the pan was rotated at 20 revolutions per minute, the liquid encapsulant solution was sprayed onto the granules at one litre per hour while the whole was warmed to 40° C. by warm predried air directed onto the granule bed to progressively evaporate the solvents. Once all coating material was applied the granules continued to be rotated to ensure drying.
# NaNO2 coated in each of the four different solutions outlined above as well as uncoated NaNO2 granules were assessed visually using a scanning electron microscope (SEM) (Philips XL30S FEG, Netherlands). Samples were sputter coated with gold for 2 min (Quorum Technologies Polaron SC 7640 sputter coater, England) and viewed at an accelerating voltage of 5 kV. […]
smiles,measurement,setting,value
"O=N[O-].[Na+] [Uncoated NaNO2 granules, sodium nitrite]",aggregation of granules,54x/55x and 250x magnification,strong tendency to aggregate
same,surface of granule / coat (cracks),1000x magnification,covered in surface fissures

# From US10624338B2, “Nitrite microencapsulation, and uses of microencapsulated nitrite in the manufacture of pest baits” (priority 2016, dated 2020)
